Legend:
Alternaria brassicae = assay: Antifungal activity against Alternaria brassicae QDAU-16 assessed as reduction in microbial growth by broth microdilution method; type: functional
[1] = system: Ceratobasidium cornigerum; assay: Antifungal activity against Ceratobasidium cornigerum QDAU-6 assessed as reduction in microbial growth by broth microdilution method; type: functional
Coniella diplodiella = assay: Antifungal activity against Coniothyrium diplodiella QDAU-7 assessed as reduction in microbial growth by broth microdilution method; type: functional
[2] = system: Colletotrichum gloeosporioides; assay: Antifungal activity against Colletotrichum gloeosporioides QDAU-2 assessed as reduction in microbial growth by broth microdilution method; type: functional
[3] = system: Colletotrichum gloeosporioides; assay: Antifungal activity against Colletotrichum gloeosporioides QDAU-17 assessed as reduction in microbial growth by broth microdilution method; type: functional
Curvularia spicifera = assay: Antifungal activity against Curvularia spicifera QDAU-18 assessed as reduction in microbial growth by broth microdilution method; type: functional
Fusarium graminearum = assay: Antifungal activity against Fusarium graminearum QDAU-4 assessed as reduction in microbial growth by broth microdilution method; type: functional
Fusarium oxysporum = assay: Antifungal activity against Fusarium oxysporum QDAU-8 assessed as reduction in microbial growth by broth microdilution method; type: functional
Fusarium proliferatum [4] = assay: Antifungal activity against Fusarium proliferatum QDAU-19 assessed as reduction in microbial growth by broth microdilution method; type: functional
Penicillium digitatum = assay: Antifungal activity against Penicillium digitatum QDAU-14 assessed as reduction in microbial growth by broth microdilution method; type: functional
[5] = system: Botryosphaeria berengeriana; assay: Antifungal activity against Physalospora piricola QDAU-15 assessed as reduction in microbial growth by broth microdilution method; type: functional
Fusarium proliferatum [6] = assay: Antifungal activity against Fusarium proliferatum assessed as reduction in microbial growth measured after 72 hrs; type: functional, organism-based
MKN-45 = assay: Cytotoxicity against human MKN-45 cells assessed as reduction in cell viability at 20 uM; type: functional, cell-based
A549 = assay: Cytotoxicity against human A549 cells assessed as reduction in cell viability at 20 uM; type: functional, cell-based
HCT-116 = assay: Cytotoxicity against human HCT-116 cells assessed as reduction in cell viability at 20 uM; type: functional, cell-based
HeLa = assay: Cytotoxicity against human HeLa cells assessed as reduction in cell viability at 20 uM; type: functional, cell-based
K562 = assay: Cytotoxicity against human K562 cells assessed as reduction in cell viability at 20 uM; type: functional, cell-based
786-0 = assay: Cytotoxicity against human 786-0 cells assessed as reduction in cell viability at 20 uM; type: functional, cell-based
TE-1 = assay: Cytotoxicity against human TE-1 cells assessed as reduction in cell viability at 20 uM; type: functional, cell-based
5637 = assay: Cytotoxicity against human 5637 cells assessed as reduction in cell viability at 20 uM; type: functional, cell-based
GBC-SD = assay: Cytotoxicity against human GBC-SD cells assessed as reduction in cell viability at 20 uM; type: functional, cell-based
L02 = assay: Cytotoxicity against human L02 cells assessed as reduction in cell viability at 20 uM; type: functional, cell-based
MCF7 = assay: Cytotoxicity against human MCF7 cells assessed as reduction in cell viability at 20 uM; type: functional, cell-based
HepG2 = assay: Cytotoxicity against human HepG2 cells assessed as reduction in cell viability at 20 uM; type: functional, cell-based
SF-126 = assay: Cytotoxicity against human SF-126 cells assessed as reduction in cell viability at 20 uM; type: functional, cell-based
DU-145 = assay: Cytotoxicity against human DU-145 cells assessed as reduction in cell viability at 20 uM; type: functional, cell-based
CAL-62 = assay: Cytotoxicity against human CAL-62 cells assessed as reduction in cell viability at 20 uM; type: functional, cell-based
PaTu 8988t = assay: Cytotoxicity against human PaTu 8988t cells assessed as reduction in cell viability at 20 uM; type: functional, cell-based
HOS = assay: Cytotoxicity against human HOS cells assessed as reduction in cell viability at 20 uM; type: functional, cell-based
A-375 = assay: Cytotoxicity against human A-375 cells assessed as reduction in cell viability at 20 uM; type: functional, cell-based
A673 = assay: Cytotoxicity against human A673 cells assessed as reduction in cell viability at 20 uM; type: functional, cell-based
HEK-293T = assay: Cytotoxicity against human HEK293T cells assessed as reduction in cell viability at 20 uM; type: toxicity, cell-based
Escherichia coli = assay: Antibacterial activity against Escherichia coli EMBLC-1 assessed as reduction in microbial growth by broth microdilution method; type: functional
Edwardsiella tarda = assay: Antibacterial activity against Edwardsiella tarda QDIO-2 assessed as reduction in microbial growth by broth microdilution method; type: functional
Micrococcus luteus = assay: Antibacterial activity against Micrococcus luteus QDIO-3 assessed as reduction in microbial growth by broth microdilution method; type: functional
Pseudomonas aeruginosa = assay: Antibacterial activity against Pseudomonas aeruginosa QDIO-4 assessed as reduction in microbial growth by broth microdilution method; type: functional
Vibrio anguillarum = assay: Antibacterial activity against Vibrio anguillarum QDIO-6 assessed as reduction in microbial growth by broth microdilution method; type: functional
Vibrio harveyi = assay: Antibacterial activity against Vibrio harveyi QDIO-7 assessed as reduction in microbial growth by broth microdilution method; type: functional
Vibrio vulnificus = assay: Antibacterial activity against Vibrio vulnificus QDIO-10 assessed as reduction in microbial growth by broth microdilution method; type: functional

C[C@@H]1[C@H](O)[C@@H](C)/C=C/C=C/C=C/C=C/C=C/C=C/C=C/[C@H](O[C@@H]2O[C@H](C)[C@@H](O)[C@H](N)[C@@H]2O)C[C@@H]2O[C@](O)(C[C@@H](O)C[C@@H](O)[C@H](O)CC[C@@H](O)C[C@@H](O)CC(=O)O[C@H]1C)C[C@H](O)[C@H]2C(=O)O [AMPHOTERICIN B]
MIC (Alternaria brassicae): 0.5 µg/mL | MIC [1]: 8 µg/mL | MIC (Coniella diplodiella): 0.5 µg/mL | MIC [2]: 2 µg/mL | MIC [3]: 8 µg/mL | MIC (Curvularia spicifera): 0.5 µg/mL | MIC (Fusarium graminearum): 2 µg/mL | MIC (Fusarium oxysporum): 4 µg/mL | MIC (Fusarium proliferatum [4]): 1 µg/mL | MIC (Penicillium digitatum): 4 µg/mL | MIC [5]: 8 µg/mL

C=C1[C@H](O)C[C@H]2C[C@@H]1[C@](C)([C@H](O)CC=C(C)C)O2
MIC (Alternaria brassicae): 8 µg/mL | MIC [1]: 4 µg/mL | MIC (Coniella diplodiella): 4 µg/mL | MIC [2]: 4 µg/mL | MIC [3]: 2 µg/mL | MIC (Curvularia spicifera): 8 µg/mL | MIC (Fusarium graminearum): 2 µg/mL | MIC (Fusarium oxysporum): 2 µg/mL | MIC (Fusarium proliferatum [4]): 16 µg/mL | MIC (Penicillium digitatum): 8 µg/mL | MIC [5]: 8 µg/mL

C=C1CC[C@@]2(O)C[C@@H]1[C@]2(C)[C@@H](/C=C/C(C)(C)O)OC(C)=O
MIC (Alternaria brassicae): 0.5 µg/mL | MIC [1]: 4 µg/mL | MIC (Coniella diplodiella): 0.5 µg/mL | MIC [2]: 4 µg/mL | MIC [3]: 8 µg/mL | MIC (Curvularia spicifera): 2 µg/mL | MIC (Fusarium graminearum): 4 µg/mL | MIC (Fusarium oxysporum): 2 µg/mL | MIC (Fusarium proliferatum [4]): 0.5 µg/mL | MIC (Penicillium digitatum): 4 µg/mL | MIC [5]: 8 µg/mL | EC50 (Fusarium proliferatum [6]): 1 µg/mL | Activity (Fusarium proliferatum [6]; dose <= 100.0 µg/ml): Dose-Dependent Effect | Activity (MKN-45): Not toxic | Activity (A549): Not toxic | Activity (HCT-116): Not toxic | Activity (HeLa): Not toxic | Activity (K562): Not toxic | Activity (786-0): Not toxic | Activity (TE-1): Not toxic | Activity 5637: Not toxic | Activity (GBC-SD): Not toxic | Activity (L02): Not toxic | Activity (MCF7): Not toxic | Activity (HepG2): Not toxic | Activity (SF-126): Not toxic | Activity (DU-145): Not toxic | Activity (CAL-62): Not toxic | Activity (PaTu 8988t): Not toxic | Activity (HOS): Not toxic | Activity (A-375): Not toxic | Activity (A673): Not toxic | Activity (HEK-293T): Non-Toxic

C=C1CC[C@@]2(O)C[C@@H]1[C@]2(C)[C@@H](CC=C(C)C)OC(C)=O
MIC (Alternaria brassicae): 8 µg/mL | MIC [1]: 4 µg/mL | MIC (Coniella diplodiella): 4 µg/mL | MIC [2]: 4 µg/mL | MIC [3]: 16 µg/mL | MIC (Curvularia spicifera): 1 µg/mL | MIC (Fusarium graminearum): 2 µg/mL | MIC (Fusarium oxysporum): 16 µg/mL | MIC (Fusarium proliferatum [4]): 2 µg/mL | MIC (Penicillium digitatum): 8 µg/mL | MIC [5]: 32 µg/mL | MIC (Escherichia coli): 8 µg/mL | MIC (Edwardsiella tarda): 4 µg/mL | MIC (Micrococcus luteus): > 64 µg/mL | MIC (Pseudomonas aeruginosa): > 64 µg/mL | MIC (Vibrio anguillarum): > 64 µg/mL | MIC (Vibrio harveyi): 16 µg/mL | MIC (Vibrio vulnificus): > 64 µg/mL

C=C1C(=O)C[C@@]2(C)C[C@@H]1[C@](C)([C@H](O)CC=C(C)C)O2
MIC (Alternaria brassicae): 4 µg/mL | MIC [1]: 8 µg/mL | MIC (Coniella diplodiella): 4 µg/mL | MIC [2]: 4 µg/mL | MIC [3]: 8 µg/mL | MIC (Curvularia spicifera): 8 µg/mL | MIC (Fusarium graminearum): 1 µg/mL | MIC (Fusarium oxysporum): 4 µg/mL | MIC (Fusarium proliferatum [4]): 16 µg/mL | MIC (Penicillium digitatum): 4 µg/mL | MIC [5]: 4 µg/mL

C=C1CC[C@H](O)C[C@@H]1[C@H](C)C(=O)[C@H](O)C=C(C)C
MIC (Escherichia coli): 8 µg/mL | MIC (Edwardsiella tarda): > 64 µg/mL | MIC (Micrococcus luteus): > 64 µg/mL | MIC (Pseudomonas aeruginosa): > 64 µg/mL | MIC (Vibrio anguillarum): 32 µg/mL | MIC (Vibrio harveyi): > 64 µg/mL | MIC (Vibrio vulnificus): > 64 µg/mL | Activity (MKN-45): Not toxic | Activity (A549): Not toxic | Activity (HCT-116): Not toxic | Activity (HeLa): Not toxic | Activity (K562): Not toxic | Activity (786-0): Not toxic | Activity (TE-1): Not toxic | Activity 5637: Not toxic | Activity (GBC-SD): Not toxic | Activity (L02): Not toxic | Activity (MCF7): Not toxic | Activity (HepG2): Not toxic | Activity (SF-126): Not toxic | Activity (DU-145): Not toxic | Activity (CAL-62): Not toxic | Activity (PaTu 8988t): Not toxic | Activity (HOS): Not toxic | Activity (A-375): Not toxic | Activity (A673): Not toxic | Activity (HEK-293T): Non-Toxic

— ChEMBL document CHEMBL5634182, “Antifungal Pseuboyenes A-J, Bergamotene-Derived Sesquiterpenoids from a Cold-Seep-Derived Pseudallescheria boydii” (J Nat Prod, 2024)
